Measured values published in US20030091589A1, “Methods and compositions for control of coccidiosis” (priority 2001, published 2003).
Marks after values point to notes of the source that are not given here.

How the values were obtained:
Eimeria spp. [1] = test: 20-day battery trial, chicks challenged with sporulated Eimeria species (Example 4); type: in vivo, broiler chicks (Cobb)
Experimental: A 20-day battery trial was conducted to determine the anticoccidial activity of a yeast cell composition in broiler chicks (Cobb) challenged with sporulated Eimeria species. One hundred sixty chicks (day old) were housed in battery cages (10 chicks per cage, 459 sq. cm/bird). There were four replicated cages per treatment. A standard corn soya diet was provided with water ad libitum. Treatment groups were the following: (1) Negative control (non-medicated, unchallenged); 2) positive control (non-medicated, challenged; 3) BIO-MOS®, 1 kg/tonne (challenged); and 4) Salinomycin, 60 g/tonne (challenged).
The challenge inoculum was provided at 14 days of age and contained 50,000 E. acervulina, 5,000 E. maxima or 40,000 E. tenella oocysts, respectively, administered by oral gavage. Body weights and feed consumption were measured at 9, 14 and 20 days of age. Six days post-infection all birds were sacrificed and lesion scored using the method of Johnson and Reid (1970) supra. Lesion scores were evaluated in the upper (E. acervulina), middle (E. maxima), and cecal (E. tenella) regions of the intestine.

E. acervulina = test: 28-day trial, broiler chicks challenged with E. acervulina (Example 3); type: in vivo, Cornish Rock male broiler chicks
Experimental: A 28-day trial with 360 Cornish Rock male broiler chicks was conducted to investigate the effects of two medicated feeds on the suppression of detrimental effects of E. acervulina.
Day-old chicks were fed a standard corn soya diet containing Salinomycin (6 mg/kg) or BIO-MOS® (1 kg/tonne). The four experimental groups were: 1) negative control, unmedicated, unchallenged; 2) Salinomycin-treated, challenged, 3) BIO-MOS®-treated, challenged and 4)BIO-MOS® treated, unchallenged. Birds were randomly assigned to three replicate pens in each treatment group. At 14 days of age, chicks were infected orally by gavage with E. acervulina (500,000 oocysts/bird). The response variables measured included weekly body weight gain and cecal lesion scores. Data were subjected to ANOVA using the General Linear Model procedure (SAS Institute, Cary, N.C.) as described in Example 1.

Eimeria spp. [2] = test: 20-day battery trial, chicks challenged with sporulated Eimeria species (Example 5); type: in vivo, broiler chicks (Cobb)
Experimental: A 20-day battery trial was conducted to determine the anticoccidial activity of a BIO-MOS® in broiler chicks (Cobb) challenged with sporulated Eimeria species. One hundred sixty chicks (day old) were housed in battery cages (10 chicks per cage, 459 sq.cm/bird). There were 4 replicated cages per treatment. A standard soya corn diet was provided with water ad libitum. Treatment groups were the following: 1) Negative control (non-medicated, unchallenged); 2) Positive control (non-medicated and challenged; 3) BIO-MOS®, 1 kg/tonne (challenged); and 4) Salinomycin, 60 g/tonne (challenged).
The challenge inoculum was provided at 14 days of age and contained respectively, 50,000 E. acervulina, 5,000 E. maxima or 40,000 E. tenella oocysts administered by oral gavage. Body weights and feed consumption were measured at 0, 14 and 20 days of age.
Six days post infection all birds were sacrificed and lesion scored, using the method of Johnson and Reid supra. Lesion scores were evaluated in the upper (E. acervulina), middle (E. maxima), and cecal (E. tenella) regions of the intestine.

Eimeria spp. [3] = test: 42-day trials, growth of broiler chicks reared on Eimeria-infected recycled litter (Example 6); type: in vivo, Cornish Rock male broiler chicks; conditions: AVATEC 90.7 g/ton, Bacitracin Zn 50 g/t, BIO-MOS 0.5 kg/tonne
Experimental: Three 42-day trials were conducted to evaluate the effects of AVATEC (lasalocid, Alpharma, Fort Lee, N.J.), an anticoccidial ionophore (90.7 g/ton); Bacitracin Zn, (50 g/t), and BIO-MOS® (0.5 kg/tonne) on the growth of broiler chicks reared on recycled litter. Sixty (day-old) Cornish Rock male broiler chicks were put into each of four treatment groups (replicated three times) consisting of the following: 1) Control (untreated birds); 2) BIO-MOS® treated, 3) AVATEC treated, and 4) Bacitracin ZN treated. Pine wood shavings on which broilers infected with E. tenella, E. maxima, and E. acervulina had been grown were used as recycled litter for the trials. Pens containing this recycled litter were assigned to the four treatment groups prior to commencement of the trial, and day old chicks were introduced for each of the three subsequent trials with the same recycled litter.
Diets consisted of mainly corn-soy supplemented with necessary vitamins and minerals to satisfy 1994 National Research Council requirements. Weekly body weights were measured. […] Mean body weight averages of chicks in all treatments decreased with each cycle of litter re-use due to infection.

E. tenella = test: 28-day trial, broiler chicks challenged with E. tenella (Example 1); type: in vivo, Cornish Rock male broiler chicks
Experimental: A 28-day trial with 360 Cornish Rock male broiler chicks was conducted to investigate the effects of two medicated feeds on the suppression of detrimental effects of E. tenella (See Tables I & II).
Day-old chicks were fed standard corn soya diets containing Monensin ([…]) or a yeast cell wall/mannanoligosaccharide-containing composition (BIO-MOS®, Alltech, Inc., Nicholasville, Ky.) (1 kg/tonne). The experimental groups included: 1) negative control (unmedicated, unchallenged); 2) positive control (untreated, challenged); 3) Monensin-treated, challenged and 4) BIO-MOS®-treated, challenged. Birds were randomly assigned to three replicate pens in each treatment group. At 14 days of age, chicks were infected orally by gavage with E. tenella (50,000 oocysts/bird). The response variables measured included weekly body weight gain and cecal lesion scores as described (Johnson and Reid. 1970 “Anticoccidial Drugs: Lesion Scoring Technique in Battery and Floor Pen Experiments with Chickens.” Exp. Parasitol. 28:30-36). Treatment differences were evaluated by using the LSD procedure with the General Linear Models Procedure (SAS Institute, 1985, Cary, N.C.) using pens as the experimental units. The model statement included only treatment effects. When significance differences (P<0.05) were observed, the least significant differences (LSD) procedures was applied to test for the differences among treatments.

E. maxima = test: 28-day trial, broiler chicks challenged with E. maxima (Example 2); type: in vivo, Cornish Rock male broiler chicks
Experimental: A 28-day trial with 360 Cornish Rock male broiler chicks was conducted to investigate the effects of two medicated feeds on the suppression of E. maxima infection. Thirty day-old chicks per treatment group were housed in battery cages and fed a standard soya corn diet containing Monensin ([…]) or a commercially available yeast cell-derived composition containing yeast cell wall material and mannanoligosaccharide (BIO-MOS®) (1 kg/tonne). The four experimental groups included: 1) negative control (unmedicated, unchallenged); 2) positive control (unmedicated, challenged); 3) Monensin treated, challenged, and 4) BIO-MOS® treated, challenged. Birds were assigned to treatments and replicate pens as described in Example 1. At 14 days of age, chicks were infected orally by gavage with E. maxima (50,000 oocysts/bird). The response variables measured included weekly body weight gain and cecal lesion scores. Such measurements were subjected to analysis of variance as described in Example 1.

[4] = Eimeria spp. infected, BIO-MOS 1 kg/t, Salinomycin 60 g/t
[5] = post-challenge period, BIO-MOS 1 kg/t, Salinomycin 60 g/t
[6] = post-challenge weight gain versus unchallenged control
[7] = pre-challenge period, BIO-MOS 1 kg/t, Salinomycin 60 g/t
[8] = whole trial, BIO-MOS 1 kg/t, Salinomycin 60 g/t

## CC[C@@H](C(=O)[C@@H](C)[C@@H](O)[C@H](C)[C@@H]1O[C@@H]([C@@H](CC)C(=O)O)CC[C@@H]1C)[C@H]1O[C@]2(C=C[C@@H](O)[C@]3(CC[C@@](C)([C@H]4CC[C@](O)(CC)[C@H](C)O4)O3)O2)[C@H](C)C[C@@H]1C [Salinomycin]
Eimeria spp. [1]; Eimeria spp. challenge
  lesion scores compared to control groups in the upper and mid intestine regions: significantly reduced (P<0.05)
Eimeria spp. [1]; [4]
  Feed Conv.: 1.511^b
Eimeria spp. [1]; cecal region (E. tenella), six days post-infection, BioMos 1 kg/t, Salinomycin 60 g/t
  Average Cecal Lesion Scores, Ceca: 0.6^c
Eimeria spp. [1]; middle intestine (E. maxima), six days post-infection, BioMos 1 kg/t, Salinomycin 60 g/t
  Average Cecal Lesion Scores, Mid: 0.8^c
Eimeria spp. [1]; [5]
  Avg. Live Wt. Gain Day 14-20: 0.314^a kg
Eimeria spp. [1]; [6]
  % Wt. Gain Reduction: −0.41%
Eimeria spp. [1]; [7]
  Avg. Live Wt. Gain Day 0-14: 0.634^a kg
Eimeria spp. [1]; total of regions, six days post-infection, BioMos 1 kg/t, Salinomycin 60 g/t
  Average Cecal Lesion Scores, Total: 2.7^c
Eimeria spp. [1]; upper intestine (E. acervulina), six days post-infection, BioMos 1 kg/t, Salinomycin 60 g/t
  Average Cecal Lesion Scores, Upper: 1.3^c
Eimeria spp. [1]; [8]
  Avg. Live Wt. Gain Day 0-20: 0.634^a kg
E. acervulina; Challenge: Yes (E. acervulina)
  Body Weight Gain Post-Infection Week 3: 350^a grams
  Body Weight Gain Post-Infection Week 4: 607^ab grams
  Body Weight Pre-Infection Week 2: 236^a grams
E. acervulina; E. acervulina challenge, versus positive control
  reduction of severity of cecal lesions (cecal lesion scores): 57%
E. acervulina; chicks challenged with E. acervulina 500,000 oocysts/bird at 14 days, Salinomycin 6 mg/kg or BIO-MOS 1 kg/tonne in feed
  Cecal Lesion Scores: 0.92^bc
Eimeria spp. [2]; Eimeria spp. challenge
  lesion scores versus the positive control in all regions of the gut: significantly lower lesion scores
Eimeria spp. [2]; [4]
  Feed Conv.: 1.675^a
Eimeria spp. [2]; cecal region (E. tenella), six days post infection, BioMos 1 kg/t, Salinomycin 60 g/t
  Average Cecal Lesion Scores, Ceca: 1.2^b
Eimeria spp. [2]; middle intestine (E. maxima), six days post infection, BioMos 1 kg/t, Salinomycin 60 g/t
  Average Cecal Lesion Scores, Mid: 0.7^b
Eimeria spp. [2]; [5]
  Avg. Live Wt. Gain Day 14-20: 0.243^ab kg
Eimeria spp. [2]; [6]
  % Wt. Gain Reduction: 8.90%
Eimeria spp. [2]; [7]
  Avg. Live Wt. Gain Day 0-14: 0.262^a kg
Eimeria spp. [2]; total of regions, six days post infection, BioMos 1 kg/t, Salinomycin 60 g/t
  Average Cecal Lesion Scores, Total: 2.7^ab
Eimeria spp. [2]; upper intestine (E. acervulina), six days post infection, BioMos 1 kg/t, Salinomycin 60 g/t
  Average Cecal Lesion Scores, Upper: 0.8^b
Eimeria spp. [2]; [8]
  Avg. Live Wt. Gain Day 0-20: 0.504^ab kg

## CC[C@@H](C(=O)[C@@H](C)[C@@H](O)[C@H](C)CCc1ccc(C)c(O)c1C(=O)O)[C@H]1O[C@](CC)([C@H]2CC[C@](O)(CC)[C@H](C)O2)C[C@@H]1C [AVATEC, lasalocid]
Eimeria spp. [3]; 42-day trial 1 on recycled litter
  Body Weight, Trial 1: 2271^a Grams
Eimeria spp. [3]; 42-day trial 2 on same recycled litter
  Body Weight, Trial 2: 1863^b Grams
Eimeria spp. [3]; 42-day trial 3 on same recycled litter
  Body Weight, Trial 3: 1760^ab Grams

## CC[C@@]1([C@@H]2O[C@@H]([C@H]3O[C@@](O)(CO)[C@H](C)C[C@@H]3C)C[C@@H]2C)CC[C@H]([C@]2(C)CC[C@]3(C[C@H](O)[C@@H](C)[C@@H]([C@@H](C)[C@@H](OC)[C@H](C)C(=O)O)O3)O2)O1 [Monensin]
E. tenella; E. tenella infected, weeks 2-4 after challenge, mean of 3 replications
  Average Weight Gain, Mean: 544 Grams
E. tenella; E. tenella infected, weeks 2-4 after challenge, replicate pen 1
  Average Weight Gain, Replication 1: 498 Grams
E. tenella; E. tenella infected, weeks 2-4 after challenge, replicate pen 2
  Average Weight Gain, Replication 2: 611 Grams
E. tenella; E. tenella infected, weeks 2-4 after challenge, replicate pen 3
  Average Weight Gain, Replication 3: 523 Grams
E. tenella; chicks infected with E. tenella 50,000 oocysts/bird at 14 days, Monensin 60 g/kg or BIO-MOS 1 kg/tonne in feed
  Cecal Lesion Scores: 1.50^b
E. tenella; standard Monensin treatment
  improvements in weight gain relative to E. tenella-challenged control: not seen
E. tenella; versus untreated challenged control
  severity of the E. tenella infections as measured by cecal lesion scores: significantly (P<0.05) reduced
E. maxima; E. maxima infected, 2-4 weeks after challenge, mean of 3 replications
  Average Weight Gain, Mean: 536
E. maxima; E. maxima infected, 2-4 weeks after challenge, replicate pen 1
  Average Weight Gain, Replication 1: 598
E. maxima; E. maxima infected, 2-4 weeks after challenge, replicate pen 2
  Average Weight Gain, Replication 2: 412
E. maxima; E. maxima infected, 2-4 weeks after challenge, replicate pen 3
  Average Weight Gain, Replication 3: 599
E. maxima; E. maxima infection, versus positive control
  reduction of average cecal lesion scores: 21%
E. maxima; chicks challenged with E. maxima 50,000 oocysts/bird at 14 days, Monensin 60 g/kg or BIO-MOS 1 kg/tonne in feed
  Cecal Lesion Scores: 0.93^b
